The values below come from patent US10138251B2, “Spiro[3H-indole-3,2′-pyrrolidin]-2(1H)-one compounds and derivatives as MDM2-P53 inhibitors” (Boehringer Ingelheim International GmbH, priority 2014, dated 2018).

SMILES strings stand for the structures.

For this assay, the target named is T1, MDM2 (Homo sapiens, UniProt Q00987).
T1 construct: 20 nM GST-MDM2 protein (aa 23-117)
T1 sequence (Q00987 23-117): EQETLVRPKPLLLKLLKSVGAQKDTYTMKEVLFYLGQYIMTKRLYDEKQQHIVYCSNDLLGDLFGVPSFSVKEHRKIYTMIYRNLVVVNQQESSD
Nature of the assay: Mdm2-p53 Inhibition AlphaScreen. The following applies: 20 nM GST-MDM2 protein (aa 23-117), 20 nM biotinylated p53 wt peptide. It is filed as binding. How it is done:
Mdm2-p53 Inhibition AlphaScreen
15 μL of compound in 20% DMSO (serial pre-dilutions of compound are done in 100% DMSO) is pipetted to the wells of a white OptiPlate-96 (PerkinElmer). A mix consisting of 20 nM GST-MDM2 protein (aa 23-117) and 20 nM biotinylated p53 wt peptide (encompassing aa 16-27 of wt human p53, amino acid sequence QETFSDLWKLLP-Ttds-Lys-Biotin, molecular weight 2132.56 g/mol) is prepared in assay buffer (50 mM Tris/HCl pH 7.2; 120 mM NaCl; 0.1% bovine serum albumin (BSA); 5 mM dithiothreitol (DTT); 1 mM ethylenediaminetetraacetic acid (EDTA); 0.01% Tween 20). 30 μL of the mix is added to the compound dilutions and incubated for 15 min at rt while gently shaking the plate at 300 rounds per minute (rpm). Subsequently, 15 μL of premixed AlphaLISA Glutathione Acceptor Beads and AlphaScreen Streptavidin Donor Beads from PerkinElmer (in assay buffer at a concentration of 10 μg/mL each) are added and the samples are incubated for 30 min at rt in the dark (shaking 300 rpm). Afterwards, the signal is measured in a PerkinElmer Envision HTS Multilabel Reader using the AlphaScreen protocol from PerkinElmer.
Each plate contains negative controls where biotinylated p53-peptide and GST-MDM2 are left out and replaced by assay buffer. Negative control values are entered as low basis value when using the software GraphPad Prism for calculations. Furthermore, a positive control (5% DMSO instead of test compound; with protein/peptide mix) is pipetted. Determination of IC50 values are carried out using GraphPad Prism 3.03 software (or updates thereof).
For orientation: Alpha assays give light when donor and acceptor beads are brought close together.
What is called IC50 is the concentration that inhibits the measured activity by half. Molecule `CCOc1cccc(CN2[C@H]3CCN(CC4CC4C(=O)O)[C@H]3[C@H](c3cccc(Cl)c3F)[C@]23C(=O)Nc2cc(Cl)ccc23)c1` (some centres unmarked) [Compound I-64] showed an IC50 of 6 nM. The figure for `O=C(Cc1cccnc1)N1CC[C@H]2C1[C@H](c1cccc(Cl)c1F)[C@]1(C(=O)Nc3cc(Cl)ccc31)N2CC1CC1` (some centres unmarked) [Compound I-79] is 386 nM; for `O=C(O)C1CCC(CN2CC[C@H]3[C@@H]2[C@H](c2cccc(Cl)c2F)[C@]2(C(=O)Nc4cc(Cl)ccc42)N3CC2CC2)CC1` (some centres unmarked) [Compound I-61] it is 274 nM; for `O=C(O)c1cccc(C(=O)N2CC[C@H]3C2[C@H](c2cccc(Cl)c2F)[C@]2(C(=O)Nc4cc(Cl)ccc42)N3CC2CC2)c1` (some centres unmarked) [Compound I-93] it is 377 nM.

As to `CCOc1cccc(CN2[C@H]3CCN(Cc4cn[nH]c4C(=O)O)[C@H]3[C@H](c3cccc(Cl)c3F)[C@]23C(=O)Nc2cc(Cl)ccc23)c1` [Compound I-73], the 50% inhibitory concentration (IC50) came out at 29 nM. This IC50 is about 13-fold lower than that of the molecule before. Consider `CN(C)C(=O)CCC(=O)N1CC[C@H]2C1[C@H](c1cccc(Cl)c1F)[C@]1(C(=O)Nc3cc(Cl)ccc31)N2CC1CC1` (some centres unmarked) [Compound I-84], for which the IC50 was 107 nM.

The molecule `O=C(O)c1ccc([C@@H]2C[C@H]3[C@@H](N2)[C@H](c2cccc(Cl)c2F)[C@]2(C(=O)Nc4cc(Cl)ccc42)N3CC2CC2)cc1` [Compound I-30] had an IC50 of 41 nM.

In turn, `O=C(O)c1ccc(C(=O)N2CC[C@H]3C2[C@H](c2cccc(Cl)c2F)[C@]2(C(=O)Nc4cc(Cl)ccc42)N3CC2CC2)cc1` (some centres unmarked) [Compound I-92] yielded an IC50 of 106 nM. Next, `O=C(O)c1ccc([C@H]2C[C@H]3[C@@H](N2)[C@H](c2cccc(Cl)c2F)[C@]2(C(=O)Nc4cc(Cl)ccc42)N3CC2CC2)cc1` [Compound I-29]: 5 nM; `O=C(c1ncccn1)N1CC[C@H]2C1[C@H](c1cccc(Cl)c1F)[C@]1(C(=O)Nc3cc(Cl)ccc31)N2CC1CC1` (some centres unmarked) [Compound I-80]: 596 nM; `CC(=O)Nc1ccc(C(=O)N2CC[C@H]3C2[C@H](c2cccc(Cl)c2F)[C@]2(C(=O)Nc4cc(Cl)ccc42)N3CC2CC2)cc1` (some centres unmarked) [Compound I-82]: 389 nM. The figure for `CCOc1cccc(CN2[C@H]3C[C@@H](c4ccc(C(=O)O)cc4)N[C@H]3[C@H](c3cccc(Cl)c3F)[C@]23C(=O)Nc2cc(Cl)ccc23)c1` [Compound I-37] is 5 nM. The figure for `CCOC(=O)c1ccc([C@H]2C[C@H]3[C@@H](N2)[C@H](c2cccc(Cl)c2F)[C@]2(C(=O)Nc4cc(Cl)c(F)cc42)N3CC2CC2)cc1` [Compound I-13] is 623 nM; for `O=C(O)c1[nH]ncc1CN1CC[C@H]2[C@@H]1[C@H](c1cccc(Cl)c1F)[C@]1(C(=O)Nc3cc(Cl)ccc31)N2CC1CC1` [Compound I-72] it is 1300 nM.

`CN(C)CC(=O)N1CC[C@H]2C1[C@H](c1cccc(Cl)c1F)[C@]1(C(=O)Nc3cc(Cl)ccc31)N2CC1CC1` (some centres unmarked) [Compound I-78] came in with an IC50 of 381 nM. The figure for `CC(=O)N1CC[C@H]2C1[C@H](c1cccc(Cl)c1F)[C@]1(C(=O)Nc3cc(Cl)ccc31)N2CC1CC1` (some centres unmarked) [Compound I-76] is 212 nM; for `O=C1Nc2nc(Cl)ccc2[C@@]12[C@@H](c1cccc(Cl)c1F)[C@@H]1NCC[C@@H]1N2CC1CC1` [Compound I-23] it is 871 nM; for `NC(=O)c1ccc([C@H]2C[C@H]3[C@@H](N2)[C@H](c2cccc(Cl)c2F)[C@]2(C(=O)Nc4cc(Cl)ccc42)N3CC2CC2)cc1` [Compound I-75] it is 16 nM.

Turning to `CC(=O)Nc1ccc(C(=O)N2CC[C@H]3C2[C@H](c2cccc(Cl)c2F)[C@]2(C(=O)Nc4cc(Cl)ccc42)N3CC2CC2)c(C)c1` (some centres unmarked) [Compound I-81], it took 444 nM to reach half-maximal inhibition (IC50).

In turn, `CCOc1cccc(CN2[C@H]3CCN(CC(=O)O)[C@H]3[C@H](c3cccc(Cl)c3F)[C@]23C(=O)Nc2cc(Cl)ccc23)c1` [Compound I-70] returned a half-inhibitory concentration (IC50) of 2 nM. This IC50 lies about 220-fold lower than the previous one. The figure for `CN(C)c1cccc(C(=O)N2CC[C@H]3C2[C@H](c2cccc(Cl)c2F)[C@]2(C(=O)Nc4cc(Cl)ccc42)N3CC2CC2)c1` (some centres unmarked) [Compound I-87] is 607 nM; for `CCOc1cccc(CN2[C@@H]3CCN(CC(=O)O)[C@@H]3[C@@H](c3cccc(Cl)c3F)[C@@]23C(=O)Nc2cc(Cl)ccc23)c1` [Compound I-71] it is 722 nM; for `CC(=O)N1CC[C@H]2C1[C@H](c1ccnc(Cl)c1F)[C@]1(C(=O)Nc3cc(Cl)ccc31)N2CC1CC1` (some centres unmarked) [Compound I-89] it is 34 nM. Next, `CCOc1cccc(CN2[C@H]3C[C@H](c4ccc(C(=O)O)cc4)N[C@H]3[C@H](c3cccc(Cl)c3F)[C@]23C(=O)Nc2cc(Cl)ccc23)c1` [Compound I-36]: 4 nM; `O=C(O)c1ccc(CN2CC[C@H]3[C@@H]2[C@H](c2cccc(Cl)c2F)[C@]2(C(=O)Nc4cc(Cl)ccc42)N3CC2CC2)cc1` [Compound I-68]: 91 nM; `CCOc1cccc(CN2[C@H]3CCN(CC4CCC(C(=O)O)CC4)[C@H]3[C@H](c3cccc(Cl)c3F)[C@]23C(=O)Nc2cc(Cl)ccc23)c1` (some centres unmarked) [Compound I-62]: 24 nM. Next, `O=C(O)c1ccc([C@H]2C[C@H]3[C@@H](N2)[C@H](c2cccc(Cl)c2)[C@]2(C(=O)Nc4cc(Cl)ccc42)N3CC2CC2)cc1` [Compound I-24]: 23 nM; `CCOc1cccc(CN2[C@H]3CCN(C(C)=O)C3[C@H](c3cccc(Cl)c3F)[C@]23C(=O)Nc2cc(Cl)ccc23)c1` (some centres unmarked) [Compound I-88]: 28 nM. `O=C(O)c1ccc([C@@H]2C[C@H]3[C@@H](N2)[C@H](c2cccc(Cl)c2)[C@]2(C(=O)Nc4cc(Cl)ccc42)N3CC2CC2)cc1` [Compound I-25] returned an IC50 of 49 nM. The figure for `O=C(O)c1ccc([C@@H]2CC[C@H]3[C@@H](N2)[C@H](c2cccc(Cl)c2F)[C@]2(C(=O)Nc4cc(Cl)ccc42)N3CC2CC2)cc1` [Compound I-40] is 133 nM; for `CCOc1cccc(CN2[C@H]3CCN(C(C)=O)C3[C@H](c3ccnc(Cl)c3F)[C@]23C(=O)Nc2cc(Cl)ccc23)c1` (some centres unmarked) [Compound I-90] it is 6 nM; for `COc1cc(C(=O)O)ccc1[C@@H]1C[C@H]2[C@@H](N1)[C@H](c1cccc(Cl)c1)[C@]1(C(=O)Nc3cc(Cl)ccc31)N2CC1CC1` [Compound I-26] it is 173 nM. The figure for `COc1cc([C@@H]2C[C@@H]3[C@H](N2)[C@@H](c2cccc(Cl)c2F)[C@@]2(C(=O)Nc4cc(Cl)ccc42)N3CC2CC2)ccc1C(=O)O` [Compound I-32] is 373 nM; for `CCOc1cccc(CN2[C@H]3CCN(C(C)=O)C3[C@H](c3cccc(Cl)c3F)[C@]23C(=O)Nc2cc(Cl)ccc23)n1` (some centres unmarked) [Compound I-91] it is 180 nM; for `O=C(O)CN1CC[C@H]2[C@@H]1[C@H](c1cccc(Cl)c1F)[C@]1(C(=O)Nc3cc(Cl)ccc31)N2CC1CC1` [Compound I-67] it is 40 nM. Next, `O=C(O)c1ccc([C@H]2CC[C@H]3[C@@H](N2)[C@H](c2cccc(Cl)c2F)[C@]2(C(=O)Nc4cc(Cl)ccc42)N3CC2CC2)cc1` [Compound I-39]: 124 nM; `CCOc1cccc(CN2[C@@H]3CCN(CC4CC4C(=O)O)[C@@H]3[C@@H](c3cccc(Cl)c3F)[C@@]23C(=O)Nc2cc(Cl)ccc23)c1` (some centres unmarked) [Compound I-66]: 209 nM; `CCOc1cccc(CN2[C@H]3CCN(CC4CC4C(=O)O)[C@H]3[C@H](c3cccc(Cl)c3F)[C@]23C(=O)Nc2cc(Cl)ccc23)c1` (some centres unmarked) [Compound I-65]: 3 nM. `COCC(=O)N1CC[C@H]2C1[C@H](c1cccc(Cl)c1F)[C@]1(C(=O)Nc3cc(Cl)ccc31)N2CC1CC1` (some centres unmarked) [Compound I-77] yielded a 50% inhibitory concentration (IC50) of 119 nM.

With `O=C(CCO)N1CC[C@H]2C1[C@H](c1cccc(Cl)c1F)[C@]1(C(=O)Nc3cc(Cl)ccc31)N2CC1CC1` (some centres unmarked) [Compound I-83], the 50% inhibitory concentration (IC50) came to 102 nM. Molecule `O=C(O)C1CC1CN1CC[C@H]2[C@@H]1[C@H](c1cccc(Cl)c1F)[C@]1(C(=O)Nc3cc(Cl)ccc31)N2CC1CC1` (some centres unmarked) [Compound I-63] returned a 50% inhibitory concentration (IC50) of 130 nM. Next, `O=C(O)C[C@@H]1C[C@H]2[C@@H](N1)[C@H](c1cccc(Cl)c1)[C@]1(C(=O)Nc3cc(Cl)ccc31)N2CC1CC1` [Compound I-47]: 280 nM. The figure for `CCOc1cccc(CN2[C@H]3CCN(CC(=O)O)[C@H]3[C@H](c3cccc(Cl)c3F)[C@]23C(=O)Nc2cc(Cl)ccc23)c1` [Compound I-69] is 3 nM; for `O=C(O)c1cccc([C@H]2C[C@H]3[C@@H](N2)[C@H](c2cccc(Cl)c2)[C@]2(C(=O)Nc4cc(Cl)ccc42)N3CC2CC2)c1` [Compound I-27] it is 32 nM. Next, `CCOc1cccc(CN2[C@H]3CCN(CC4CC4C(N)=O)[C@H]3[C@H](c3cccc(Cl)c3F)[C@]23C(=O)Nc2cc(Cl)ccc23)c1` (some centres unmarked) [Compound I-74]: 21 nM; `O=C(O)c1cccc([C@@H]2C[C@H]3[C@@H](N2)[C@H](c2cccc(Cl)c2)[C@]2(C(=O)Nc4cc(Cl)ccc42)N3CC2CC2)c1` [Compound I-28]: 249 nM. Take `CCOc1cccc(CN2[C@H]3C[C@H](c4ccc(C(=O)O)cc4)N[C@H]3[C@H](c3cccc(Cl)c3F)[C@]23C(=O)Nc2cc(Cl)ccc23)c1` [Compound I-38]: inhibition was half-maximal at 2 nM (IC50).
